# Data reported in patent US6916826B2, “Substituted imidazo[1,2-a]pyridine derivatives” (Hoffman-La Roche Inc., priority 2001, dated 2005).
# Molecular target: central benzodiazepine receptors
# Assay: Inhibition of binding of tritiated flumazenil to benzodiazepine receptors in rat cortex
# Conditions: [3H]flumazenil, Cheng & Prusoff
# Description: The affinity of compounds of formula I to the central benzodiazepine receptors in vitro was also tested using standard methods as for example described in Nature 1981, 294, 763-765 and J. Neurochemistry 1981, 37, 714-722. According to these methods, the inhibition of the binding of tritiated flumazenil to the specific benzodiazepine receptors in the cortex of rats by the respective test substances is determined and the inhibition dissociation constant (Ki) of each test compound is determined according to the method of Cheng & Prusoff (1973).
row,SMILES,pKi (negative logarithm of the Ki)
1,"Cc1ccc(-c2cn3ccccc3n2)cc1C.Cl [Example 6, 2-(3,4-Dimethyl-phenyl)-imidazo[1,2-a]pyridine hydrochloride]",5.2

# Molecular target: T1, rat mGlu 5a receptor (Rattus norvegicus, UniProt P31424)
# T1 construct: expressed in transfected cells; host or cells: EBNA cells (transient transfection)
# T1 sequence (P31424 21-1171 isoform P31424-2 limits assumed): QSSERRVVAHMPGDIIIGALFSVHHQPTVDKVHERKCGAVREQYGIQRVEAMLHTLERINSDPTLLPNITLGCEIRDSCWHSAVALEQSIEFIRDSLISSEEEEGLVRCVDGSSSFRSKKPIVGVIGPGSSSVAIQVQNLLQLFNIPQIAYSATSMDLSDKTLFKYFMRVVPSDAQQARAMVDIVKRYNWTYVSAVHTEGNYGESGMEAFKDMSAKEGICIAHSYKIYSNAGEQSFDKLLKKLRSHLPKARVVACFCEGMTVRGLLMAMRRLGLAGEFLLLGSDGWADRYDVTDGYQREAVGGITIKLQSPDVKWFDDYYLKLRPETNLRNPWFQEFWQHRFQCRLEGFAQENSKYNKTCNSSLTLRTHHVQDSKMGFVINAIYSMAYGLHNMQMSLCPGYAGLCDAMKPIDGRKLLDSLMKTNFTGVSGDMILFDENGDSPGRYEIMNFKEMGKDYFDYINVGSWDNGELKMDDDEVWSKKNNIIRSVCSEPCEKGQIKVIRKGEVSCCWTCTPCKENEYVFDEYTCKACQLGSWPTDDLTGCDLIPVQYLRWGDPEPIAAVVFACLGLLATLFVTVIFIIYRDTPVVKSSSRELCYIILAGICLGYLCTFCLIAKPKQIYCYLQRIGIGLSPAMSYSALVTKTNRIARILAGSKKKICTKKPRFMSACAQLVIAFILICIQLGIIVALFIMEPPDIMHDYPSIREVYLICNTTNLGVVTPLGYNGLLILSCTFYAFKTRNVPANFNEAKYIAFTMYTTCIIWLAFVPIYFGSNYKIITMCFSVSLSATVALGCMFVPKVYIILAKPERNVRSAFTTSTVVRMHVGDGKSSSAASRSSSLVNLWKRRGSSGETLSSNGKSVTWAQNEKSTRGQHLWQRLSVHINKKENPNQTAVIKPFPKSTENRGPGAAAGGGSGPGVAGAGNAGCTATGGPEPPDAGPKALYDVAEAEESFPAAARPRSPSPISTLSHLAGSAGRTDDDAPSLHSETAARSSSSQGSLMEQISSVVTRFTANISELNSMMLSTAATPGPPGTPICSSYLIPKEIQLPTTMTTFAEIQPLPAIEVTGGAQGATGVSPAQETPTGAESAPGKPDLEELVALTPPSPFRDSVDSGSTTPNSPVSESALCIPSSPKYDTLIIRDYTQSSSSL
# Assay: [Ca2+]i FLIPR antagonist assay on mGlu 5a transfected EBNA cells against 10 μM glutamate
# Format: cell-based
# Conditions: rat mGlu 5a transiently transfected EBNA cells; against 10 μM glutamate as agonist
# Description: The pharmacological activity of the compounds of the present invention was tested using the following methods: cDNA encoding rat mGlu 5a receptor was transiently transfected into EBNA cells using a procedure described by E.-J. Schlaeger and K. Christensen (Transient gene expression in mammalian cells grown in serum-free suspension culture, Cytotechnology 1999, 30, 71-83). [Ca^2+]i measurements were performed on mGlu 5a transfected EBNA cells after incubation of the cells with Fluo 3-AM (obtainable by FLUKA, 0.5 μM final concentration) for 1 hour at 37° C. followed by 4 washes with assay buffer (DMEM supplemented with Hank's salt and 20 mM HEPES. [Ca^2+]i measurements were done using a fluorometric imaging plate reader (FLIPR, Molecular Devices Corporation, La Jolla, Calif., USA). When compounds were evaluated as antagonists they were tested against 10 μM glutamate as agonist.
# The inhibition (antagonist) curves were fitted with a four parameter logistic equation giving IC50, and Hill coefficient using the iterative non linear curve fitting software Origin (Microcal Software Inc., Northampton, Mass., USA).
row,SMILES,IC50
1,"COc1ccc(-c2cn3ccccc3n2)cc1OC [Example 3, 2-(3,4-Dimethoxy-phenyl)-imidazo[1,2-a]pyridine]",6800 nM
2,"c1ccn2cc(-c3ccc4c(c3)CCO4)nc2c1 [Example 18, 2-(2,3-Dihydro-benzofuran-5-yl)-imidazo[1,2-a]pyridine]",2860 nM
3,"COc1ccc(-c2cn3ccc(C)cc3n2)cc1OC [Example 2, 2-(3,4-Dimethoxy-phenyl)-7-methyl-imidazo[1,2-a]pyridine]",1880 nM
4,"Fc1cccc(-c2cn3ccccc3n2)c1 [Example 19, 2-(3-Fluoro-phenyl)-imidazo[1,2-a]pyridine]",3410 nM
5,"Cc1ccc(-c2cn3ccccc3n2)cc1C.Cl [Example 6, 2-(3,4-Dimethyl-phenyl)-imidazo[1,2-a]pyridine hydrochloride]",37 nM
6,"Cc1ccn2cc(-c3ccccc3)nc2c1 [Example 22, 7-Methyl-2-phenyl-imidazo[1,2-a]pyridine]",7500 nM
7,"Fc1ccc(-c2cn3ccccc3n2)cc1Br [Example 8, 2-(3-Bromo-4-fluoro-phenyl)-imidazo[1,2-a]pyridine]",690 nM
8,"Cc1ccn2cc(-c3ccc(C)c(C)c3)nc2c1 [Example 7, 2-(3,4-Dimethyl-phenyl)-7-methyl-imidazo[1,2-a]pyridine]",280 nM
9,"Brc1cccc(-c2cn3ccccc3n2)c1 [Example 11, 2-(3-Bromo-phenyl)-imidazo[1,2-a]pyridine]",950 nM
10,"COc1ccc(-c2cn3cc(C)ccc3n2)cc1OC [Example 26, 2-(3,4-Dimethoxy-phenyl)-6-methyl-imidazo[1,2-a]pyridine]",8300 nM
11,"c1ccn2cc(-c3ccc4c(c3)OCCO4)nc2c1 [Example 27, 2-(2,3-Dihydro-benzo [1,4]dioxin-6-yl)-imidazo[1,2-a]pyridine]",990 nM
12,"c1ccc2c(-c3cn4ccccc4n3)csc2c1 [Example 16, 2-Benzo[b]thiophen-3-yl-imidazo[1,2-a]pyridine]",2760 nM
13,"c1ccc2oc(-c3cn4ccccc4n3)cc2c1 [Example 15, 2-Benzofuran-2-yl-imidazo[1,2-a]pyridine]",1660 nM
14,"Cc1cc(-c2cn3ccccc3n2)c(C)s1 [Example 24, 2-(2,5-Dimethyl-thiophen-3-yl)-imidazo[1,2-a]pyridine]",580 nM
15,"Ic1cccc(-c2cn3ccccc3n2)c1 [Example 12, 2-(3-Iodo-phenyl)-imidazo[1,2-a]pyridine]",970 nM
16,"O=[N+]([O-])c1cccc(-c2cn3ccccc3n2)c1 [Example 29, 2-(3-Nitro-phenyl)-imidazo[1,2-a]pyridine]",10000 nM
17,"Cc1ccc(-c2cn3ccc(Cl)cc3n2)cc1C [Example 1, 7-Chloro-2-(3,4-dimethyl-phenyl)-imidazo[1,2-a]pyridine]",100 nM
18,"Clc1cccc(-c2cn3ccccc3n2)c1 [Example 13, 2-(3-Chloro-phenyl)-imidazo[1,2-a]pyridine]",1230 nM
19,"COc1cccc(-c2cn3ccccc3n2)c1 [Example 25, 2-(3-Methoxy-phenyl)-imidazo[1,2-a]pyridine]",1650 nM
20,"FC(F)(F)c1cccc(-c2cn3ccccc3n2)c1 [Example 17, 2-(3-Trifluoromethyl-phenyl)-imidazo[1,2-a]pyridine]",2790 nM
21,"Cc1ccc(-c2cn3ccccc3n2)cc1 [Example 23, 2-(4-Methyl-phenyl)-imidazo[1,2-a]pyridine]",8770 nM
22,"Cc1ccc(-c2cn3ccccc3n2)s1 [Example 21, 2-(5-Methyl-thiophen-2-yl)-imidazo[1,2-a]pyridine]",6130 nM
23,"Cc1cccc(-c2cn3ccccc3n2)c1 [Example 14, 2-(3-Methyl-phenyl)-imidazo[1,2-a]pyridine]",1550 nM
24,"COc1ccn2cc(-c3ccc(OC)c(OC)c3)nc2c1 [Example 5, 2-(3,4-Dimethoxy-phenyl)-7-methoxy-imidazo[1,2-a]pyridine]",3300 nM
25,"CCc1ccn2cc(-c3ccc(C)c(C)c3)nc2c1 [Example 20, 2-(3,4-Dimethyl-phenyl)-7-ethyl-imidazo[1,2-a]pyridine]",3640 nM
26,"Cc1ccc(-c2cn3cc(C)ccc3n2)cc1 [Example 28, 6-Methyl-2-(4-methyl-phenyl)-imidazo[1,2-a]pyridine]",10000 nM
27,"c1ccn2cc(-c3ccc4c(c3)CCC4)nc2c1 [Example 10, 2-Indan-5-yl-imidazo[1,2-a]pyridine]",930 nM
28,"COc1ccn2cc(-c3ccc(C)c(C)c3)nc2c1 [Example 4, 2-(3,4-Dimethyl-phenyl)-7-methoxy-imidazo[1,2-a]pyridine]",140 nM
29,"COc1cc(-c2cn3ccccc3n2)ccc1OCc1ccccc1 [Example 9, 2-(4-Benzyloxy-3-methoxy-phenyl)-imidazo[1,2-a]pyridine]",830 nM

# Same assay, conditions: statement in words, compared with compounds of formula I
row,SMILES,affinity toward the mGluR5 receptor
1,"Cc1ccc(-c2nc3ccc(C)cn3c2CC(=O)N(C)C)cc1 [N,N,6-trimethyl-2-(4-methylphenyl)-imidazo[1,2-a]pyridine-3-acetamide, reference compound]",does not possess the affinity toward the mGluR5 receptor

# System: central benzodiazepine receptors
# Assay: not given
# Conditions: from cited reference (Eur. J. Pharmacol. 1986, 130(3), 257-263); cited from earlier work
row,SMILES,agonist properties at central benzodiazepine receptors
1,"Cc1ccc(-c2nc3ccc(C)cn3c2CC(=O)N(C)C)cc1 [N,N,6-trimethyl-2-(4-methylphenyl)-imidazo[1,2-a]pyridine-3-acetamide, reference compound]",possesses agonist properties at central benzodiazepine receptors

# System: not given
# Assay: not given
# Conditions: not given
row,SMILES,melting point
1,"COc1ccc(-c2cn3ccc(C)cc3n2)cc1OC [Example 2, 2-(3,4-Dimethoxy-phenyl)-7-methyl-imidazo[1,2-a]pyridine]",163 °C
2,"Cc1ccc(-c2cn3ccc(Cl)cc3n2)cc1C [Example 1, 7-Chloro-2-(3,4-dimethyl-phenyl)-imidazo[1,2-a]pyridine]",144 °C
3,"COc1ccn2cc(-c3ccc(OC)c(OC)c3)nc2c1 [Example 5, 2-(3,4-Dimethoxy-phenyl)-7-methoxy-imidazo[1,2-a]pyridine]",142 °C
4,"COc1ccn2cc(-c3ccc(C)c(C)c3)nc2c1 [Example 4, 2-(3,4-Dimethyl-phenyl)-7-methoxy-imidazo[1,2-a]pyridine]",175 °C
